The values that follow come from ChEMBL document CHEMBL1201862, “PubChem BioAssay data set” (2004).

In assay [1] the test system is HEK293. Put plainly: inhibition of NOD1-driven NF-kB reporter – cell-based, luminescence, uHTS, primary screen (AID 1578). Format: functional. The conditions noted are these: Homo sapiens.
The test system of assay [2] is HEK293. Put plainly: cells. The format is functional, cell-based. The settings on record: Homo sapiens.
Assay [3] has as its target Phospholipase A2 (Homo sapiens, UniProt P04054). The format is functional.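 Note: confirmatory dose-response counterscreen on phospholipase A2, testing hits that came from an ultra-high-throughput screen for ATG4B inhibitors.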
The test system of assay [4] is HEK293. Put plainly: cells. The format is functional, cell-based. The settings on record: Homo sapiens. This is another data set of the same source.
Assay [5] can be described thus: Luminescence Cell-Based Dose Confirmation HTS to Identify Inhibitors of Platelet Dense Granule Release. [Related pubchem assays: 1663 (Primary HTS), 1678 (Summary of Project)]. Format: functional.
The test system of assay [6] is HEK293. Put plainly: cells. The settings on record: Homo sapiens. Format: functional, cell-based. The source holds these as a separate data set.
For assay [7], the system named is HEK293. Put plainly: NOD2 signaling inhibitors in MDP-stimulated cells, cell-based, uHTS, luminescence (AID 2001). The settings on record: Homo sapiens. The format is functional.
Assay [8] concerns the target Nucleotide-binding oligomerization domain-containing protein 2 (Homo sapiens, UniProt Q9HC29). Put plainly: inhibition of NOD2-driven NF-kB reporter – cell-based, luminescence, uHTS, HEK293 (AID 1566). Format: functional.
Assay [9] addresses Luciferin 4-monooxygenase (Photinus pyralis, UniProt P08659). Briefly: inhibition of purified Photinus pyralis luciferase – biochemical, luminescence, dose response (AID 1891).
Assay [10] in a line: HEK-293T cell viability reduction – luminescence, B-cell screen hits, cytotoxicity control for BCR NF-kB inhibitor project, dose response (AID 489021).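 Note: HEK-293T cells carrying an NF-kB luciferase reporter; cells exposed to compound for about 14 hours before viability readout.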 Format: functional, cell-based.
Assay [11] concerns the target T1, Cysteine protease ATG4B (Homo sapiens, UniProt Q9Y4P1).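 Note: Fluorescence-based dose-response confirmation assay measuring inhibition of ATG4B activity.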
T1 sequence (Q9Y4P1 whole entry): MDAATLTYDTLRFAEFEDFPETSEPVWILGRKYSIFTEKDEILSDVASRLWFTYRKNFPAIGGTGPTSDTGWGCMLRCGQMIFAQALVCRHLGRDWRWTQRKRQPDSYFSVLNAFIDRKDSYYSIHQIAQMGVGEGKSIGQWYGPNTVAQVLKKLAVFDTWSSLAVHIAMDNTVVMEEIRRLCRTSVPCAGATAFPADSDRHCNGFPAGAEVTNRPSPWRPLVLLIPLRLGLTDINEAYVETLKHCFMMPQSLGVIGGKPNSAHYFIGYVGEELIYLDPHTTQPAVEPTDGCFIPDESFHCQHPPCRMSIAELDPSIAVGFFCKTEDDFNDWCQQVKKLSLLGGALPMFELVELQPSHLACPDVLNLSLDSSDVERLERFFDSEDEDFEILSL
Format: functional.

The structures appear in SMILES notation. The source made the active and inactive calls. A value given as a limit tells only on which side of the number the result lay.

Luciferin 4-monooxygenase, sequence (P08659 whole entry): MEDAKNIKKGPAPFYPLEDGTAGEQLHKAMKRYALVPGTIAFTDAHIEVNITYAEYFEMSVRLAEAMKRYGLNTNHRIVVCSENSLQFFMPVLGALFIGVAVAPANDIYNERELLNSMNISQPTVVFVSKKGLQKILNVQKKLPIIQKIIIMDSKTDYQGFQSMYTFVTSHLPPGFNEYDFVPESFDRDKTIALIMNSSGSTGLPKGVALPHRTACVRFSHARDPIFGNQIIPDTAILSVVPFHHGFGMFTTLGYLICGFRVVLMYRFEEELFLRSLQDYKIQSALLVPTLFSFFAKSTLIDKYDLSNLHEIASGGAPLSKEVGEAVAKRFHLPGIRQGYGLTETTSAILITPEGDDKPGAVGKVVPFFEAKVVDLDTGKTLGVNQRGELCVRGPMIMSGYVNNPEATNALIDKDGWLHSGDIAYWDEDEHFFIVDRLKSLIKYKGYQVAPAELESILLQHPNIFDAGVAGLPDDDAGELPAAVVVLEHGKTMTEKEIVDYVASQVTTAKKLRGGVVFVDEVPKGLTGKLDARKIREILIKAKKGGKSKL
Nucleotide-binding oligomerization domain-containing protein 2, sequence (Q9HC29 whole entry, the tested form may be a part): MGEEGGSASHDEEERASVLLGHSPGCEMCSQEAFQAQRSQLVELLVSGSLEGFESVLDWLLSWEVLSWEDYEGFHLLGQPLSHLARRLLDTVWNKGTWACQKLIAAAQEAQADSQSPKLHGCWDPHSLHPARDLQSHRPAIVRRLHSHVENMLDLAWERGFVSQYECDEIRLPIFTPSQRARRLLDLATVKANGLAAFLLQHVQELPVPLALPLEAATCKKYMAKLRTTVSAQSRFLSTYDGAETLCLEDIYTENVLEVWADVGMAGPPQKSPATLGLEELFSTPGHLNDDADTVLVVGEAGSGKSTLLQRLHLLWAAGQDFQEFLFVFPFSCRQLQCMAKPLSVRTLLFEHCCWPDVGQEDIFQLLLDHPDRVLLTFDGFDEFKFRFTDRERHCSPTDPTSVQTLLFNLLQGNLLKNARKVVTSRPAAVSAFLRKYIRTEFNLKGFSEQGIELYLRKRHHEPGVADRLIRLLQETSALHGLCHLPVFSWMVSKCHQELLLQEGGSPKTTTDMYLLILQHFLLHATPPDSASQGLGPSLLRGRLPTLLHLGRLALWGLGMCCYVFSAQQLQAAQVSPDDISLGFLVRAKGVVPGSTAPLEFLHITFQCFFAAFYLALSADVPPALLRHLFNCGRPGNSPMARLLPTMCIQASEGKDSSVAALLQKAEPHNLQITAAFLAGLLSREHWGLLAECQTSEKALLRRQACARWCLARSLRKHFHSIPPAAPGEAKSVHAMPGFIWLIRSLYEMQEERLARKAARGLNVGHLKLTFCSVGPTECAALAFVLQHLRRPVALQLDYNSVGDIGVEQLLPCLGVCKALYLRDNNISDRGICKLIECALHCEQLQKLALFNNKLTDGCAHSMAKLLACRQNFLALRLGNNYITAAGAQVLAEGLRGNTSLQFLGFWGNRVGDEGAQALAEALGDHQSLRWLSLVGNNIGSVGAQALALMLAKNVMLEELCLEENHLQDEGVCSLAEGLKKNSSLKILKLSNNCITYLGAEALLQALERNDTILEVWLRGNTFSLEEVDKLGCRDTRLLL
Phospholipase A2, sequence (P04054 whole entry): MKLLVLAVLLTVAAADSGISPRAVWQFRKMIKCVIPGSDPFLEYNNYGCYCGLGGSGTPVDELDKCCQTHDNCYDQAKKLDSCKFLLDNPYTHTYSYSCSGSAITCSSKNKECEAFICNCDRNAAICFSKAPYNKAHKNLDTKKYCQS

A word on the EC50: it is the concentration that produces a half-maximal response. The IC50 is the point on the concentration scale where inhibition reaches its midpoint. Turning to `O=C(CCCN1C(=O)/C(=C/c2ccccc2Cl)SC1=S)NNC(=O)c1ccccc1`, the EC50 in [1] is > 20 µM (inactive); in [5] it was > 112 µM (not active); in assay [8], > 20 µM (inactive); in assay [9], > 112 µM (not active). The IC50 in assay [2] is > 20 µM (inactive); in assay [3], 5.28 µM (active); in [4], 3.13 µM (active); in assay [6] it was > 20 µM (inactive); in assay [7], 3.04 µM (active); in assay [10], > 80 µM (inactive). Also, the IC50 in assay [11] was 16.6 µM (active).
